Legend:
Type in all cases: biochemical
[1] = test system: Nucleoside Phosphorylase; test: Pyrimidine nucleoside phosphorylase kinetics, human liver; settings: substrate of nucleoside phosphorylase; for Km / Vmax: 37° C.
Method: (§1) Enzyme activities were determined isotopically as the products, nucleotides, nucleosides, bases, β-amino-acid, etc. formed from their respective radiolabeled substrates, bases and/or nucleosides. All assays were run at 37° C. under conditions where activity was linear with time and enzyme concentration. […] Reactions were started by the addition of extract and stopped by boiling in a water bath for 2 minutes followed by freezing. Precipitated proteins were removed by centrifugation. A 10-25 μl aliquot of the supernatant fluid was spotted on the appropriate TLC plate and developed in the appropriate solvent system. Separated substrate and product(s) were counted on a TLC Analyzer (Berthold). The amounts of substrate and product(s) were calculated on a percentage basis.
(§2) The assay mixture contained Buffer A, 33-600 μM radiolabeled nucleoside ([2-^14 C]uridine, [2-^14 C]thymidine or [2-^14 C]5-fluoro-2'-deoxyuridine), and 50 μl of sonicate in a final volume of 100 μl. After termination of the reaction and centrifugation, the nucleosides were separated from their respective nucleobases on silica gel TLC plate developed with chloroform:methanol:acetic acid (90:5:5 v/v/v). When assaying patients, the assay is run at about 226 μM 5-fluoro-2'-deoxyuridine, about 169 μM thymidine or about 114 μM uridine.
(§3) The apparent Km and Vmax, as well as the enzyme efficiency values were calculated using computer programs based on Wilkinson-Cleland procedures. Because of the number of patients used, a two-tailed t-test was applied to determine the degree of significance of the difference in enzymatic activities between healthy volunteers, tolerant and intolerant subjects.

[2] = test system: Nucleoside Phosphorylase; test: Pyrimidine nucleoside phosphorylase kinetics, human mononuclear cell sonicate; settings: substrate of nucleoside phosphorylase, human mononuclear cells; for Km / Vmax: 37° C.
Method: (§4) All procedures are carried out at room temperature, using solutions preheated to 37° C. Blood samples were withdrawn in aliquots of 30 ml into 60 ml syringes, containing 5 ml heparin (1,000 Units/ml). Blood and heparin were immediately mixed by inverting the syringes. The mixture was layered onto HISTOPAQUE-1077 (15 ml), in a 50 ml conical centrifuge tube and centrifuged for 30 minutes at 400 ×g. The upper layer was then aspirated with a Pasteur pipet and discarded, while the opaque interface containing the mononuclear cells was aspirated into a fresh conical tube containing 10 ml growth medium (RPMI-1640 medium: 5% FBS:0.050M HEPES, pH 7.4) and mixed by inverting the tubes. The cells were pelleted by centrifugation for 10 minutes at 250 ×g then resuspended into fresh growth medium by gentle aspiration with a Pasteur pipet. After two more washing, the cells were suspended into 10 ml fresh growth media.
(§5) The following buffers were used: Buffer A (20 mM potassium phosphate, pH 8.0) and Buffer B (50 mM Tris-Cl, pH 7.5). Mononuclear cells were washed 2-3 times as described above except that buffer B was substituted for the growth medium. The cells were then sonicated (1:2 v/v) in buffer B using a sonic dismembrator (Fisher model 300). The sonicate was then used as the enzyme source.
as §1, §2, §3

[3] = test system: Nucleoside Kinases; test: Pyrimidine nucleoside kinase kinetics, human liver; settings: substrate of nucleoside kinases; for Km / Vmax: 37° C.
Method: as §1
(§6) The assay mixture contained 50 mM Tris-Cl, pH 7.4; 3-60 μM radiolabeled nucleoside ([2-^14 C]thymidine or [2-^14 C]5-fluoro-2'-deoxyuridine); 2.5 mM ATP; 5 mM creatine phosphate; 25 mM NaF; and 50 μl of sonicate to which was added a dash of phosphocreatine kinase in a final volume of 100 μl. After termination of the reaction and centrifugation, the supernatant was spotted on silica gel TLC plates. The plates were developed in a solution of chloroform:methanol:acetic acid (56:24:4, v/v/v) to separate the nucleosides which migrate with the front from the nucleotides which remain at the origin. When assaying patients, the assays are run at about 4.4 μM 5-fluoro-2'-deoxyuridine or about 6.4 μM thymidine.
as §3

[4] = test system: Nucleoside Kinases; test: Pyrimidine nucleoside kinase kinetics, human mononuclear cell sonicate; settings: substrate of nucleoside kinases, human mononuclear cells; for Km / Vmax: 37° C.
Method: as §4, §5, §1, §6, §3

| Compound | Vmax /Km [1] [min^-1 × 10^3] | Km [1] [µM] | Vmax [1] [nmol/min/mg] | Vmax /Km [2] [min^-1 × 10^3] | Km [2] [µM] | Vmax [2] [nmol/min/mg] | Vmax /Km [3] [min^-1 × 10^3] | Km [3] [µM] | Vmax [3] [nmol/min/mg] | Vmax /Km [4] [min^-1 × 10^3] | Km [4] [µM] | Vmax [4] [nmol/min/mg] |
| --- | --- | --- | --- | --- | --- | --- | --- | --- | --- | --- | --- | --- |
| Cc1cn([C@H]2C[C@H](O)[C@@H](CO)O2)c(=O)[nH]c1=O [Thymidine, thymidine] | 76.15 | 256 | 19.471 | 6.34 | 168 | 1.068 | 4.00 | 6.41 | 0.025 | 2.40 | 6.45 | 0.015 |
| O=c1ccn([C@@H]2O[C@H](CO)[C@@H](O)[C@H]2O)c(=O)[nH]1 [Uridine, uridine] | 172.00 | 99.1 | 1.703 | 3.79 | 114 | 0.431 | 0.55 | 55.8 | 0.031 | 7.00 | 40.3 | 0.027 |
| O=c1[nH]c(=O)n([C@H]2C[C@H](O)[C@@H](CO)O2)cc1F [5-Fluoro-2'-deoxyuridine, 5-fluoro-2'-deoxyuridine] | 111.90 | 215 | 24.041 | 6.22 | 226 | 1.404 | 5.17 | 3.1 | 0.016 | 2.89 | 4.39 | 0.013 |
| O=c1[nH]c(=O)n([C@@H]2O[C@H](CO)[C@@H](O)[C@H]2O)cc1F [5-Fluorouridine] | 8.62 | 286 | 2.470 |  |  |  | 0.50 | 25.1 | 0.013 |  |  |  |

Reference: patent US5670331A, “Methods for optimizing fluoropyrimidine cancer therapy” (The University of Alabama Research Foundation, priority 1995, dated 1997)
